The source of these data is patent US11260050B2, “Combination of cotinine plus antioxidant for treatment-resistant depression and correction of astrocytes functional deficit induced by depression and other neuropathological” (UNIVERSIDAD SAN SEBASTIAN, priority 2017, dated 2022).

Assay [1] deals with mice subjected to restraint stress. As to the kind of experiment: Porsolt test after restraint stress, intranasal post-treatment (Example 1, Experiment 1). It counts as in vivo, C57BL/6 mice. To be noted: RS mice post-treated with cotinine via IN; p<0.01. As to the method: Mice were treated immediately after the 21 days of immobilization stress (6 h/day) until euthanasia. Mice (n=5-8/condition) received daily treatments with 1. PBS (phosphate buffer saline, pH 7.4) via intranasal (2×12 μl/nostril), 2. PBS via gavage (50 μl); 3. Cotinine dissolved in PBS via oral (gavage, (0.5 mg/kg; Cot 0.5); 4. Cotinine dissolved in PBS via intranasal (Cot IN, 10 mg/ml, 2×12 μl/nostril).
To induce chronic stress, the restraint stress paradigm was used as previously described. Mice are immobilized in 50 ml falcon plastic tubes that were attached to mouse cages. The immobilization proceeded during 6 h from 9:00 AM to 3:00 PM in absence of treatments. Tubes have holes in the opposite side of the tube to allow the animal breathing and urination. Mice were almost completely immobilized for 6 h/day for 21 days after which they were permitted freely to move, eat and drink.
This test is used to measure the antidepressant effects of drugs, and consists in placing each mouse in a transparent cylinder filled with water at room temperature (RT). After a brief period of strong activity, rodents adopt a characteristic immobile posture. The time mice spent immobile is a measure of depressive-like behavior. The immobility time will be recorded during a 15-min and a next day 5-min trial. The time spent by each mouse immobile will be recorded.

In another assay the test system is conditioned mice. As to the kind of experiment: Forced swim test after fear conditioning and extinction (Example 4). To be noted: FC mice after extinction; Tukey: cotinine p<0.001, combination p<0.005, sertraline p<0.05. It counts as in vivo, Mice C57BL/6. The method, then: Three-month-old mice (n=5-6/condition) were weighed and assigned to treatment groups. Mice were treated with vehicle or drugs, starting two h after fear conditioning and daily after behavioral testing until euthanasia. Mice received daily treatments with 1. PBS (phosphate buffer saline, pH 7.4) via intranasal; 2. Cotinine (10 mg/ml) dissolved in PBS via intranasal (IN Cot, 24 μl); 3. Krill oil dissolved in PBS, via intranasal (48 mg/ml, 24 μl); 4. Cotinine (10 mg/ml) plus krill oil dissolved in PBS, via intranasal (48 mg/ml, 24 μl); 5.
For intranasal delivery, mice were hand-restrained, placed in a supine position, and given two 12 μl drops of cotinine solutions, or PBS, into both nares consecutively. Mice were given an extra 12 μl treatment drop if the subject forcibly ejected or sneezed out the solution. Mice were held supine for 5-10 seconds after delivery to ensure that all fluid was inhaled.

The next assay relates to restrained mice. The experiment in a line: Forced swim test, oral co-treatment during restraint stress (Example 3). It counts as in vivo, C57BL/6J mice. To be noted: oral cotinine 5 mg/kg, KO 143 mg/kg or both, vs vehicle-treated restrained mice. As to the method: Mice after acclimatization and one week of handling were randomly divided into five groups (n=8/condition) and orally treated as follow: 1) control non-restrained mice treated with vehicle (PBS, pH 7.4); 2) restrained mice treated with vehicle; 3), restrained mice treated with a cotinine solution (5 mg/kg in PBS, pH 7.4) via gavage; 4) restrained mice treated with KO (143 mg/kg); 5) restrained mice treated with cotinine plus KO solution. Mice were started with treatments, the first day of restraint and continuously until euthanasia. Treatments were administered at the same time of the day, 30 min before restraint. After 21 days into treatments, mice were behaviorally tested (FIG. 17).
Restraint stress (RS) was used as a model of chronic stress-induced depressive-like behavior and cognitive impairment. We used this task because is a reliable method that mimics the effects of chronic stress without causing physical pain or unnecessary discomfort to the mice. Mice were gently introduced into a 50-ml conical transparent plastic tubes (Corning Inc.). The tubes contain non-protruding perforations in both ends and in the walls to permit ventilation and only permitted slight movements. […]
The forced swim (FS) is a broadly used task to assess depressive-like behavior in rodents. […] Immobility time was recorded and quantified by two investigators blind to the treatment groups.

The test system of a further assay is GFAP. As to the kind of experiment: Immunohistochemical analysis of GFAP expression, hippocampus and frontal cortex (Example 1). It counts as in vivo, C57BL/6 mice. To be noted: RS mice treated with cotinine. An excerpt: After treatments, the hippocampus and frontal cortex were investigated for changes in neuronal and glia cells architecture by Luxol blue staining, and cresyl violet staining. Also, the expression levels of the astrocyte marker GFAP in cells of the same areas by immunohistochemistry.
After the behavioral testing, mice were euthanized and brains were removed and dissected. Each brain was divided into two parts, left and right hemispheres. The frontal cortex and hippocampus were dissected from left hemisphere on ice and quickly frozen for subsequent analyses at −80° C. The right hemispheres were post-fixed in 10% buffered formalin (pH7.4) for 48 hours, included in paraffin, sliced in 4 μm sections and mounted in slides for histological and immunohistochemical analysis. […]
Three digital images of the slides immunostained for GFAP immunoreactivity (IR) were obtained of the hippocampus and frontal cortex using a digital camera attached to an inverted microscope at 40× magnification (Micrometrics, MilesCo Scientific, Princeton, Minn., USA) operated by software Micrometrics (Micrometrics SE Premium). To quantitate GFAP immunoreactivity the area of immunostaining was delimited and quantitated using the ImageJ software, provided by the National Institute of Health (NIH, Bethesda, […]., USA).

Each structure is given as a SMILES string.

Consider `CN1C(=O)CC[C@H]1c1cccnc1` [Cotinine, (5S)-1-methyl-5-(3-pyridyl) pyrrolidin-2-one], for which the “depressive-like behavior (freezing/immobility) in the Porsolt test” value in assay [1] is recorded as “significant decrease in depressive-like behavior”. Also, in the assay on conditioned mice, the “depressive-like behavior (immobility) in the forced swim test” value is “significantly decreased depressive-like behavior”. Further, the “immobility in the forced swim test” value in the assay with restrained mice is “no significant differences”. Also, the “level of GFAP+ cells in the hippocampus and cortex (qualitative analysis)” value with GFAP is “recovery of this expression was observed”.
